In US20210353681A1, “USE OF TNKS INHIBITORS FOR REGENERATION OF CARTILAGE” (SEOUL NATIONAL UNIVERSITY R&DB FOUNDATION, priority 2020, published 2021):

Columns and labels:
[1] = test system: primary cultured mouse chondrocytes; experiment: mRNA and protein levels of cartilage-specific matrix genes in primary cultured mouse chondrocytes; assay type: cell-based; conditions: for expression of cartilage-specific matrix genes: chondrocytes treated with drugs, mRNA and protein levels (FIG. 1f, g)
Experimental: Primary culture of mouse articular chondrocytes. For the primary culture of mouse articular chondrocytes, cells were isolated from femoral condyles and tibial plateaus of 4-5-day-old ICR mice, as described previously^83. Chondrocytes were maintained in DMEM supplemented with 10% fetal bovine serum (FBS), 100 units/ml penicillin, and 100 μg/ml streptomycin, and cells were treated as indicated in each experiment. Transfection was performed with […] PRO (Biontex) according to the manufacturer's protocol. All siRNAs, including negative control siRNA, were purchased from Bioneer. Recombinant mouse Wnt-3a (315-20) was purchased from PeproTech, and recombinant mouse Dkk-1 (5897-DK) was purchased from R&D Systems.
RT-PCR and qPCR. Total RNAs were extracted using TRI reagent (Molecular Research Center, Inc.). RNAs were reverse transcribed using EasyScript Reverse Transcriptase (Transgen Biotech). Then, cDNA was amplified by PCR or qPCR with the primers listed in Table 2. qPCR was performed with SYBR TOPreal qPCR 2× preMIX (Enzynomics) to determine transcript abundance. Transcript quantity was calculated using the ΔΔCt method, and Hprt or HPRT1 levels were used as housekeeping controls. The log 2 (fold change) value of the cartilage stromal gene of mouse articular chondrocytes treated with siRNA was clustered using a hierarchical clustering algorithm (mean association and central correlation distance) in 1.0.4 R package. PCA was performed using the same R package.
Whole-cell lysate preparation. Whole-cell lysates were prepared in RIPA buffer (150 mM NaCl, 1% NP-40, 50 mM Tris, pH 8.0, 0.5% sodium deoxycholate, 0.1% SDS) supplemented with a protease inhibitor cocktail (Sigma-Aldrich).

[2] = test system: mouse limb-bud mesenchymal cells; experiment: Mouse limb-bud micromass culture, Alcian Blue staining; assay type: cell-based; conditions: micromass cultures, treated 3 days
Experimental: Mouse limb-bud micromass culture. For the micromass culture of mesenchymal cells, limb-bud cells were isolated from E11.5 ICR mouse embryos. 2.0×10^7 cells/ml were suspended in DMEM supplemented with 10% FBS, 100 units/ml penicillin, and 100 μg/ml streptomycin, and 15-μ1 drops were spotted on culture dishes. After 24 h, cells were treated as indicated for 3 days and subjected to Alcian Blue staining.

[3] = test system: mouse chondrocytes; experiment: RNA sequencing and gene set enrichment analysis of treated chondrocytes; assay type: cell-based; conditions: drugs 10 μM for 108 h vs vehicle; siRNAs vs control siRNA
Experimental: RNA sequencing (RNA-seq). Primary cultured mouse articular chondrocytes were treated with DMSO or 10 μM of XAV939 or IWR-1 for 108 h or transfected with control siRNA or Tnks and Tnks2 siRNAs. Three biological replicates were used for each group. One microgram of high-quality RNA samples (RIN>7.0) were used to construct RNA-seq libraries with the TruSeq Stranded mRNA Library Prep kit (Illumina). Libraries were validated with an Agilent 2100 Bioanalyzer. RNA-seq was performed on an Illumina HiSeq 2500 sequencer at Macrogen. The sequence reads were trimmed with Trimmomatic^86 and mapped against the mouse reference genome (mm10) using TopHat. Read counts per gene were calculated using HTSeq^88. Differential expression analysis was conducted using the DESeq2 R package^89. DEGs were selected using a |fold change| cutoff of >3 and a FDR q cutoff of <1×10^−5. DEGs at least one condition were clustered with hierarchical clustering algorithm (ward.D linkage with euclidean distance) using gplots R package. GO analysis was conducted using Enrichr^90. Heatmaps of DEGs that are in the cartilage-signature gene set or the osteoarthritis-signature gene sets were drawn with Gitools.
GSEA analysis. Genes were ranked according to the shrunken log2 fold change calculated via DESeq2. […]

[4] = test system: articular cartilage of DMM-operated mouse; experiment: Experimental OA in mice (DMM surgery), intra-articular hydrogel drug delivery; assay type: in vivo; conditions: for degeneration of cartilage matrix caused by DMM (Safranin O staining, OARSI grade): IA administration in hydrogel, 10 nmol drug
Experimental: Preparation of hydrogels and in vivo confirmation of controlled release of embedded molecules. 6-O-Palmitoyl-l-ascorbic acid (76183) was purchased from Sigma-Aldrich. […] PBS-suspended hydrogel (10 μl, PBS:hydrogel=1:1) containing 50 pmol DiD was administered intra-articularly, and at 1-9 days post-injection, light-emitting diode (LED) and fluorescence images of knee joints were obtained. LuminoGraph II (Atto) was used to acquire the images.
Experimental OA in mice. Eight-week-old male ICR mice were used for experimental OA. Experimental OA was induced by DMM (Destabilization of the medial meniscus) surgery on the right hindlimb, and sham surgery was conducted on the left hindlimb as a control (Glasson, S. S., Blanchet, T. J. & Morris, E. A. The surgical destabilization of the medial meniscus (DMM) model of osteoarthritis in the 129/SvEv mouse. Osteoarthritis Cartilage 15, 1061-1069, doi:10.1016/j.joca.2007.03.006 (2007)). 10 μl of PBS-suspended hydrogel (PBS:hydrogel=1:1) containing vehicle or 10 nmol drugs was administered intra-articularly.
Histology and immunohistochemistry. Mouse and rat knee joint samples and human cartilage samples were fixed with 4% paraformaldehyde overnight at 4° C. All samples were […] for 2-4 weeks 0.5M EDTA, pH 7.4 at 4° C. and embedded in paraffin. Mouse and rat paraffin blocks were sectioned at a thickness of 6 μm, and human paraffin blocks were sectioned to a thickness of 5 μm. […] Cartilage regeneration in osteochondral defect model was scored according to the International Cartilage Repair Society (ICRS) scoring system (Haikarainen, T., Krauss, S. & Lehtio, L. Tankyrases: structure, function and therapeutic implications in cancer. Curr Pharm Des 20, 6472-6488 (2014) and Mainil-Varlet, P. et al. Histological assessment of cartilage repair: a report by the Histology Endpoint Committee of the International Cartilage Repair Society (ICRS). J Bone Joint Surg Am 85-A Suppl 2, 45-57 (2003)) by three blinded observers.

Structure (SMILES)	expression of cartilage-specific matrix genes [1]	chondrogenic nodule formation [2]	enrichment of cartilage-signature genes in whole transcriptome (GSEA) [3]	degeneration of cartilage matrix caused by DMM (Safranin O staining, OARSI grade) [4]	cartilage destruction in late-stage OA (Safranin O staining, OARSI grade) ([4]; treatment started 6 weeks after DMM surgery, for additional 6 weeks, compared with vehicle-treated mice)	expression of cartilage matrisome ([1]; β-catenin inhibition in chondrocytes (FIG. 2e, f, g), iCRT 14 for 24 h)
O=c1[nH]c(-c2ccc(C(F)(F)F)cc2)nc2c1CSCC2 [XAV939, 3,5,7,8-Tetrahydro-2-[4-(trifluoromethyl)phenyl]-4H-thiopyrano[4,3-d]pyrimidin-4-one]	increased the expression of cartilage-specific matrix genes	effectively induced chondrogenic nodule formation	positively enriched	significant reduction in the degeneration of cartilage matrix	reduction in the cartilage destruction	
Cc1cc(/C=C2\SC(=O)N(c3ccccc3)C2=O)c(C)n1-c1cccnc1 [iCRT 1429]						did not significantly affect the expression of cartilage matrisome
O=C(Nc1cccc2cccnc12)c1ccc(N2C(=O)C3C4C=CC(C4)C3C2=O)cc1 (centres unmarked) [IWR-1, 4-(1,3,3a,4,7,7a-Hexahydro-1,3-dioxo-4,7-methano-2H-isoindol-2-yl)-N-8-quinolinyl-Benzamide]	increased the expression of cartilage-specific matrix genes	effectively induced chondrogenic nodule formation	positively enriched	significant reduction in the degeneration of cartilage matrix		
C[C@]1(c2nc3c(C(N)=O)cccc3[nH]2)CCCN1 [ABT-888]	failed to increase their expressions					
